What is called inhibition is the change of the read-out against control, counted positive when it falls.

The target in the first experiment is T1, human Edg-1 (S1P1) (Homo sapiens, UniProt P21453).
T1 construct: expressed in transfected cells; host or cells: HEK-293
T1 sequence (P21453 whole entry): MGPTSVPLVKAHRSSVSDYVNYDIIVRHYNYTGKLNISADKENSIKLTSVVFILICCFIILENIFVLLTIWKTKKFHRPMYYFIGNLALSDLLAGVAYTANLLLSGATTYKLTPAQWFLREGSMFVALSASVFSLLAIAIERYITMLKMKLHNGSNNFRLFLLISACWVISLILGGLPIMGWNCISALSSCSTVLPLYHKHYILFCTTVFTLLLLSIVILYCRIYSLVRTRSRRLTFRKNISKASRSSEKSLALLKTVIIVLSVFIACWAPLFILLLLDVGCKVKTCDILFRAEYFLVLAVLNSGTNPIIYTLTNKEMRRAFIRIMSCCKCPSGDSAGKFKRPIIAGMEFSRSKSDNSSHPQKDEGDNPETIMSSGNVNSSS
Briefly: S1P1 binding assay: inhibition of [33P]-S1P binding to membrane fraction of HEK-293 cells transferred with the human Edg-1 (S1P1) gene. The settings on record: [33P]-S1P 0.1 nM, human Edg-1 (S1P1) HEK-293 membrane fraction, 1 h at 30° C.; read-out: IC50 (concentration at which binding in the absence of the test compound was inhibited by 50%). Here is the method: The membrane fraction was obtained by treating the cells with a solubilizing buffer (1 mM Tris/HCl, pH 7.2) for 10 minutes on ice, centrifuging at 1000×g for 5 minutes to remove insoluble fractions, and then centrifuging at 40000×g for 30 minutes at 4° C. The resulting membrane fraction was dissolved in a binding buffer (20 mM Tris-HCl, pH 7.4, 100 mM NaCl, 15 mM NaF, 2 mM deoxypyridoxine, 4 mg/mL fatty acid-free BSA), and then [^33P]-S1P (manufactured by ARC, final concentration 0.1 nM) and a DMSO solution (final concentration of the compound 10^−5M, final concentration of DMSO 0.1%) of the test compound were added. Thereafter, the mixture was stirred and then treated for one hour at 30° C. Using a harvester, the membrane fraction was harvested onto unifilter-96 GF/C filter (manufactured by Perkin Elmer), washing was carried out four times with the binding buffer, and the filter was dried. Twenty five μL Microscint 0 (manufactured by Perkin Elmer) was added, and radioactivity was measured using Top Count NXT (manufactured by Packard) to calculate the amount (A) of [^33P]-S1P bound to the membrane fraction at the time when the compound was added.
The same procedure was carried out in the absence of the test compound, and the amount (B) of [^33P]-S1P bound was calculated. Further, the same procedure was carried out in the absence of the test compound by use of HEK-293 cells to which no Edg-1 (S1P1) gene was introduced, and the background amount (C) of [^33P]-S1P bound was calculated.
Inhibition rate (%)=[1−(A−C)/(B−C)]×100
Further, concentrations (IC50) at the time when binding in the absence of the test compound was inhibited by 50% were calculated. The membrane system binding assay was carried out in the presence of test compounds with various concentrations, and the Edg-1 (S1P1) binding inhibition rates were calculated using the equation above. Then, IC50 values were calculated using Origin (Lightstone Corp.), a software for data analysis.
As to `CCn1c(Oc2cccc(N3CCC(=O)CC3)c2)nnc1[C@@H](C)NS(=O)(=O)c1ccc(Cl)c(Cl)c1` [Compound 88, 3,4-Dichloro-N-((R)-1-[4-ethyl-5-[3-(4-oxo-piperidin-1-yl)-phenoxy]-4H-[1,2,4]triazol-3-yl]-ethyl)-benzenesulfonamide], the IC50 stood at 5.4 nM.
Take `CCn1c(Oc2cccc(N3CCN(C(C)=O)CC3)c2)nnc1[C@@H](C)NS(=O)(=O)c1ccc2c(Cl)cccc2c1` [Compound 698]: the IC50 amounted to 2.3 nM.
In the case of `CCn1c(Oc2cccc(N3CCN(C)CC3)c2)nnc1[C@@H](C)NS(=O)(=O)c1ccc(Cl)c(Cl)c1` [Compound 45, 3,4-Dichloro-N-((R)-1-[4-ethyl-5-[3-(4-methyl-piperazin-1-yl)-phenoxy]-4H-[1,2,4]triazol-3-yl]-ethyl)-benzenesulfonamide], the IC50 was determined as 4.2 nM.
On the same count and under the same terms, in the case of `CCn1c(Oc2cccc(N(CCOC)CCOC)c2)nnc1[C@@H](C)NS(=O)(=O)c1ccc(Cl)c(Cl)c1` [Compound 100] it was 18.5 nM.

Still in this experiment, the particulars now being: test compound 10 μM; inhibition of [33P]-S1P binding, membrane fraction.
With `CCn1c(Oc2ccc3cc[nH]c3c2)nnc1[C@@H](C)NS(=O)(=O)c1csc2ccccc12` [Compound 494], the inhibition at 10 µM worked out at 66%.
Same read-out and setting: in the case of `CCn1c(Oc2ccc3cc[nH]c3c2)nnc1[C@@H](C)NS(=O)(=O)c1ccc(Br)cc1Br` [Compound 431] it was 80.5%; in that of `CCn1c(Oc2cccc(N3CCN(C)CC3)c2)nnc1[C@@H](C)NS(=O)(=O)c1ccc(-c2cnco2)s1` [Compound 636], 85.7%.
The same measure, in the same setting: for `CCn1c(Oc2cccc(N3CCN(C)CC3)c2)nnc1[C@@H](C)NS(=O)(=O)c1ccc(C(=O)OC)n1C` [Compound 543] the value was 112%; for `CCn1c(Oc2ccc3cc[nH]c3c2)nnc1[C@@H](C)NS(=O)(=O)c1ccc2c(c1)OCCO2` [Compound 461], 99.7%.
On to `CCn1c(Oc2cccc(N3CCN(C)CC3)c2)nnc1[C@@H](C)NS(=O)(=O)c1c(Cl)ccc2nonc12` [Compound 542], for which the inhibition at 10 µM was 50.1%.
With `CCn1c(Oc2ccc3cc[nH]c3c2)nnc1[C@@H](C)NS(=O)(=O)c1ccc(F)cc1C` [Compound 445], the inhibition at 10 µM was determined as 55.6%.
On to `CCn1c(Oc2cccc(N3CCN(C)CC3)c2)nnc1[C@@H](C)NS(=O)(=O)c1cc(F)c(F)c(F)c1` [Compound 608], for which the inhibition at 10 µM is 109%.
Same read-out and setting: in the case of `CCn1c(Oc2cccc(N3CCN(C)CC3)c2)nnc1[C@@H](C)NS(=O)(=O)c1ccc(F)cc1C(F)(F)F` [Compound 622] it was 58.9%; in that of `CCn1c(Oc2cccc(N3CCN(C)CC3)c2)nnc1[C@@H](C)NS(=O)(=O)c1ccc(Cl)cc1Cl` [Compound 567], 102%.
`CCn1c(Oc2ccc3cc[nH]c3c2)nnc1[C@@H](C)NS(=O)(=O)c1ccc(OC)cc1OC` [Compound 473]: the inhibition at 10 µM was 74.5%.
The same measure, in the same setting: in the case of `CCn1c(Oc2ccc3cc[nH]c3c2)nnc1[C@@H](C)NS(=O)(=O)c1ccc(C)c(F)c1` [Compound 444] it was 100%; in that of `CCn1c(Oc2cccc(N3CCN(C)CC3)c2)nnc1[C@@H](C)NS(=O)(=O)c1c(C)c(C)c(C)c(C)c1C` [Compound 561], 92.4%; in that of `CCn1c(Oc2cccc(N3CCN(C)CC3)c2)nnc1[C@@H](C)NS(=O)(=O)c1ccccc1C(F)(F)F` [Compound 546], 55.8%.
In the case of `CCn1c(Oc2cccc(N3CCN(C)CC3)c2)nnc1[C@@H](C)NS(=O)(=O)c1cc(C)oc1C(F)(F)F` [Compound 629], the inhibition at 10 µM is 101%.
For `CCn1c(Oc2cccc(N3CCN(C)CC3)c2)nnc1[C@@H](C)NS(=O)(=O)c1cc(OC)ccc1OC` [Compound 569], the inhibition at 10 µM turned out to be 75%.
On the same count and under the same terms, for `CCn1c(Oc2cccc(N3CCN(C)CC3)c2)nnc1[C@@H](C)NS(=O)(=O)c1ccc(C#N)cc1` [Compound 564] the value was 105%; for `CCn1c(Oc2ccc3cc[nH]c3c2)nnc1[C@@H](C)NS(=O)(=O)c1cccc(Cl)c1` [Compound 403], 72.5%.
The same measure, in the same setting: in the case of `CCn1c(Oc2ccc3cc[nH]c3c2)nnc1[C@@H](C)NS(=O)(=O)c1ccc(F)c(F)c1F` [Compound 409] it was 74.7%.
Same read-out and setting: for `CCn1c(Oc2cccc(N3CCN(C)CC3)c2)nnc1[C@@H](C)NS(=O)(=O)c1ccc(OC(F)(F)F)cc1` [Compound 532] the value was 99.2%.
Consider `CCn1c(Oc2ccc3cc[nH]c3c2)nnc1[C@@H](C)NS(=O)(=O)c1cc(C)cc(C)c1` [Compound 433], for which the inhibition at 10 µM was determined as 93.8%.
As for `CCn1c(Oc2cccc(N3CCN(C)CC3)c2)nnc1[C@@H](C)NS(=O)(=O)c1ccc(C(F)(F)F)cc1Br` [Compound 610], the inhibition at 10 µM was 91.2%.
As to `CCc1ccc(OC)c(S(=O)(=O)N[C@H](C)c2nnc(Oc3ccc4cc[nH]c4c3)n2CC)c1` [Compound 482], the inhibition at 10 µM is 87.4%.
Same read-out and setting: in the case of `CCn1c(Oc2cccc(N3CCN(C)CC3)c2)nnc1[C@@H](C)NS(=O)(=O)c1ccc(Br)cc1C` [Compound 575] it was 104%; in that of `CCn1c(Oc2cccc(N3CCN(C)CC3)c2)nnc1[C@@H](C)NS(=O)(=O)c1ccccc1OC(F)(F)F` [Compound 563], 64.1%.

Still in this experiment, the particulars now being: test compound at 10 μM; inhibition of [33P]-S1P binding to the membrane fraction of HEK-293 cells expressing human Edg-1 (S1P1).
As for `CCn1c(Oc2ccc(F)cc2)nnc1[C@@H](C)NS(=O)(=O)c1ccc(Br)cc1Br` [Compound 260], the inhibition at 10 µM came out at 74.1%.
The same measure, in the same setting: for `CCn1c(Oc2cccc(N3CCC(=O)CC3)c2)nnc1[C@@H](C)NS(=O)(=O)c1ccc(Cl)c(Cl)c1` [Compound 88, 3,4-Dichloro-N-((R)-1-[4-ethyl-5-[3-(4-oxo-piperidin-1-yl)-phenoxy]-4H-[1,2,4]triazol-3-yl]-ethyl)-benzenesulfonamide] the value was 99.5%; for `Cc1c(C)c(C)c(S(=O)(=O)N[C@H](C)c2nnc(Oc3ccc(F)cc3)n2C)c(C)c1C` [Compound 220], 93.7%.
`CCn1c(Oc2ccc3cc[nH]c3c2)nnc1[C@@H](C)NS(=O)(=O)c1ccc(C)cc1` [Compound 359]: the inhibition at 10 µM was 95.7%.
Still for that read-out and setting: in the case of `CCn1c(Oc2ccc(F)cc2)nnc1[C@@H](C)NS(=O)(=O)c1ccccc1C` [Compound 189] it was 99.7%; in that of `CCn1c(Oc2ccc3cc[nH]c3c2)nnc1[C@@H](C)NS(=O)(=O)c1ccccc1C` [Compound 361], 96.9%; in that of `CCn1c(Oc2ccc3cc[nH]c3c2)nnc1[C@@H](C)NS(=O)(=O)c1cc(C)c(Cl)cc1C` [Compound 340], 100%.
Same read-out and setting: for `CCn1c(Oc2ccc(F)cc2)nnc1[C@@H](C)NS(=O)(=O)c1cc(C)ccc1OC` [Compound 221] the value was 69.2%; for `CCn1c(Oc2ccc(F)cc2)nnc1[C@@H](C)NS(=O)(=O)c1ccc(I)cc1` [Compound 182], 109%.
The same measure, in the same setting: for `CCn1c(Oc2ccc3cc[nH]c3c2)nnc1[C@@H](C)NS(=O)(=O)c1ccc(OC(F)(F)F)cc1` [Compound 362] the value was 95.1%; for `CCn1c(Oc2ccc(F)cc2)nnc1[C@@H](C)NS(=O)(=O)c1cc(OC)ccc1OC` [Compound 228], 53.9%; for `CCn1c(Oc2ccc(F)cc2)nnc1[C@@H](C)NS(=O)(=O)c1cccc(Cl)c1F` [Compound 280], 87.3%.
Regarding `CCn1c(Oc2ccc(F)cc2)nnc1[C@@H](C)NS(=O)(=O)c1ccc(F)cc1Br` [Compound 269], the inhibition at 10 µM stood at 91.5%.
On the same count and under the same terms, for `CCn1c(Oc2ccc(F)cc2)nnc1[C@@H](C)NS(=O)(=O)c1ccc(OC)cc1OC` [Compound 301] the value was 78.8%; for `CCn1c(Oc2cccc(N3CCN(C)CC3)c2)nnc1[C@@H](C)NS(=O)(=O)c1ccc(Cl)c(Cl)c1` [Compound 45, 3,4-Dichloro-N-((R)-1-[4-ethyl-5-[3-(4-methyl-piperazin-1-yl)-phenoxy]-4H-[1,2,4]triazol-3-yl]-ethyl)-benzenesulfonamide], 106%.
The same measure, in the same setting: in the case of `CCn1c(Oc2ccc(F)cc2)nnc1[C@@H](C)NS(=O)(=O)c1cc(C)ccc1C` [Compound 195] it was 90.1%.
Still for that read-out and setting: for `CCn1c(Oc2ccc(F)cc2)nnc1[C@@H](C)NS(=O)(=O)CC1CCCCC1` [Compound 286] the value was 60.6%; for `CCn1c(Oc2ccc3cc[nH]c3c2)nnc1[C@@H](C)NS(=O)(=O)/C=C/c1ccccc1` [Compound 356], 95.6%.
For `CCc1ccc(S(=O)(=O)N[C@H](C)c2nnc(Oc3ccc4cc[nH]c4c3)n2CC)cc1` [Compound 345], the inhibition at 10 µM was determined as 90.4%.
Still for that read-out and setting: in the case of `CCn1c(Oc2ccc(F)cc2)nnc1[C@@H](C)NS(=O)(=O)c1ccc(Br)c(F)c1` [Compound 275] it was 107%; in that of `CCn1c(Oc2ccc(F)cc2)nnc1C(C)(C)NS(=O)(=O)c1c(C)cc(C)cc1C` [Compound 174], 52.5%; in that of `CCn1c(Oc2ccc3cc[nH]c3c2)nnc1[C@@H](C)NS(=O)(=O)c1ccc(C(=O)OC)n1C` [Compound 372], 106%.
Take `CCc1cc(Br)ccc1S(=O)(=O)N[C@H](C)c1nnc(Oc2ccc(F)cc2)n1CC` [Compound 234]: the inhibition at 10 µM worked out at 50.6%.
The same measure, in the same setting: for `CCn1c(Oc2ccc(F)cc2)nnc1[C@@H](C)NS(=O)(=O)c1ccc2nsnc2c1` [Compound 292] the value was 107%.
In the case of `CCn1c(Oc2cccc(N(CCOC)CCOC)c2)nnc1[C@@H](C)NS(=O)(=O)c1ccc(Cl)c(Cl)c1` [Compound 100], the inhibition at 10 µM came out at 110%.

These data come from patent US8022091B2, “Triazole derivative” (Taisho Pharmaceutical Co., Ltd., priority 2006, dated 2011).
